A word on the IC50: it is the concentration that inhibits the measured activity by half.

32 molecules from patent publication US11524968B2, “Heterocyclic compound as a protein kinase inhibitor” (HK inno.N Corporation, priority 2017, dated 2022) can be followed below.

In this test the target is JAK1 (Homo sapiens (Human), UniProt P23458). As to the kind of experiment: Analysis of JAK1 activity inhibition ability (ADP-Glo Kinase Assay). The class given is biochemical. The following applies: JAK1 enzyme, ADP-Glo luminescence, ATP 250 uM, IRS-itide substrate, 30° C. 40 minutes; read-out: IC50. Put shortly: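 ADP-Glo luminescence read-out of ADP production, with IC50 taken as the concentration halving JAK1 activity relative to control. Enzyme was incubated 40 min at 30 °C with compound, IRS-itide (40 ng/mL) and ATP (250 uM), concentrations as prepared in pH 7.5 Tris-HCl/MgCl2/BSA/DTT buffer.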
In general terms: ADP-Glo first removes unused ATP, then detects ADP through luciferase.

JAK1, sequence (P23458 whole entry): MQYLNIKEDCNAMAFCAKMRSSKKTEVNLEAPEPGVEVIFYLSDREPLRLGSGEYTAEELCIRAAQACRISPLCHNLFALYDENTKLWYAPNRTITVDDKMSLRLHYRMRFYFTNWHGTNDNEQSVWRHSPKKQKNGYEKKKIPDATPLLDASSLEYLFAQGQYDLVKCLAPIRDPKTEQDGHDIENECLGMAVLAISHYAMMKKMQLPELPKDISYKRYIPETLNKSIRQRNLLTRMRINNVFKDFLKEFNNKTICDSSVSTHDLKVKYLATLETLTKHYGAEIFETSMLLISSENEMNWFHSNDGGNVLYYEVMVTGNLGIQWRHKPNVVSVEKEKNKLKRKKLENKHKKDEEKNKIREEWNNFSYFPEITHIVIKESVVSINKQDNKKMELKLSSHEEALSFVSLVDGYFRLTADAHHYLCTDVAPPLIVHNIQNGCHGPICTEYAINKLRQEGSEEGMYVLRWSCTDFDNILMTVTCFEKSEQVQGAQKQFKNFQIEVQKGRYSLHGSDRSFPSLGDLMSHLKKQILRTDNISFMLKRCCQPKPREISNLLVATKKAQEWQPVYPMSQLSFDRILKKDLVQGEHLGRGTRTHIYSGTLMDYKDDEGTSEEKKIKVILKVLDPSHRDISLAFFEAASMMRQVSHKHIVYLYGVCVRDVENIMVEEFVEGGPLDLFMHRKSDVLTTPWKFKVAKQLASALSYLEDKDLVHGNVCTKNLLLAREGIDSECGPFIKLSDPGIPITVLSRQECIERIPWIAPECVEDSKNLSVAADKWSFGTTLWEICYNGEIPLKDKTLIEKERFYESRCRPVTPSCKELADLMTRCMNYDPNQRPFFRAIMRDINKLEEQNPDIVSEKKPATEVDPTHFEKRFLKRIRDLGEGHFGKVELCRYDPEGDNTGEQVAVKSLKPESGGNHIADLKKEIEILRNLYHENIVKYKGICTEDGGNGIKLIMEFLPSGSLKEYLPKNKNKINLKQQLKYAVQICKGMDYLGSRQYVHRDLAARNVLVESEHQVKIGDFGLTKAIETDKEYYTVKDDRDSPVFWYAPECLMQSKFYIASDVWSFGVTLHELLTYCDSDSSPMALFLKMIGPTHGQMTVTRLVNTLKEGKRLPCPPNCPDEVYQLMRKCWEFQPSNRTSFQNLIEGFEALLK

For `CC1CN(S(=O)(=O)Nc2ccc(-c3nc(NC(=O)C4CC4)nc4[nH]ccc34)cc2)CC(C)O1` (centres unmarked) [Example 237, N-(4-(4-((2,6-dimethylmorpholine)-4-sulfonamido)phenyl)-7H-pyrrolo[2,3-d]pyrimidin-2-yl)cyclopropanecarboxamide], the IC50 is greater than 200 nM. For `O=C(Nc1nc(-c2ccc(NS(=O)(=O)N3CCOCC3)cc2)c2nc[nH]c2n1)C1CC1` [Example 238, N-(6-(4-(morpholine-4-sulfonamido)phenyl)-9H-purin-2-yl)cyclopropanecarboxamide] the value was greater than 200 nM; for `N#CCC(=O)Nc1ccc(-c2cc(NC(=O)C3CC3)nc3[nH]ccc23)cc1` [Example 239, N-(4-(4-(2-cyanoacetamido)phenyl)-1H-pyrrolo[2,3-b]pyridine-6-yl)cyclopropanecarboxamide], 20 to 200 nM; for `Cc1cc(NC(=O)CC#N)ccc1-c1cc(NC(=O)C2CC2)nc2[nH]ccc12` [Example 240, N-(4-(4-(2-cyanoacetamido)-2-methylphenyl)-1H-pyrrolo[2,3-b]pyridin-6-yl)cyclopropanecarboxamide], greater than 200 nM.

For `N#CC1(CC(=O)Nc2ccc(-c3cc(NC(=O)C4CC4)nc4[nH]ccc34)cc2)CC1` [Example 241, N-(4-(4-(2-(1-cyanocyclopropyl)acetamido)phenyl)-1H-pyrrolo[2,3-b]pyridin-6-yl)cyclopropanecarboxamide], the IC50 lay within 20 to 200 nM. Under `CCC(=O)NC1CC=C(c2cc(NC(=O)C3CC3)nc3[nH]ccc23)CC1` (centres unmarked) [Example 242, N-(4-(4-propionamidocyclohex-1-en-1-yl)-1H-pyrrolo[2,3-b]pyridin-6-yl)cyclopropanecarboxamide] stands greater than 200 nM; under `O=C(NC1CC=C(c2cc(NC(=O)C3CC3)nc3[nH]ccc23)CC1)c1ccccc1` (centres unmarked) [Example 243, N-(4-(6-(cyclopropanecarboxamido)-1H-pyrrolo[2,3-b]pyridin-4-yl)cyclohex-3-en-1-yl)benzamide], 20 to 200 nM; under `CC1CC1C(=O)NC1CC=C(c2cc(NC(=O)C3CC3)nc3[nH]ccc23)CC1` (centres unmarked) [Example 244, N-(4-(6-(cyclopropanecarboxamido)-1H-pyrrolo[2,3-b]pyridin-4-yl)cyclohex-3-en-1-yl)-2-methylcyclopropane-1-carboxamide], greater than 200 nM. In the case of `O=C(Nc1cc(C2=CCC(NC(=O)C3CCCC3)CC2)c2cc[nH]c2n1)C1CC1` (centres unmarked) [Example 245, N-(4-(6-(cyclopropanecarboxamido)-1H-pyrrolo[2,3-b]pyridin-4-yl)cyclohex-3-en-1-yl)cyclopentanecarboxamide], the IC50 was 20 to 200 nM.

With `O=C(Nc1cc(C2=CCC(NC(=O)C3CC3)CC2)c2cc[nH]c2n1)C1CC1` (centres unmarked) [Example 246, N-(4-(6-(cyclopropanecarboxamido)-1H-pyrrolo[2,3-b]pyridin-4-yl)cyclohex-3-en-1-yl)cyclopropanecarboxamide], the IC50 lay within 20 to 200 nM. For `N#CCC(=O)NC1CC=C(c2cc(NC(=O)C3CC3)nc3[nH]ccc23)CC1` (centres unmarked) [Example 247, N-(4-(4-(2-cyanoacetamido)cyclohex-1-en-1-yl)-1H-pyrrolo[2,3-b]pyridin-6-yl)cyclopropanecarboxamide] the value was 20 to 200 nM; for `O=C(CCC(F)(F)F)NC1CC=C(c2cc(NC(=O)C3CC3)nc3[nH]ccc23)CC1` (centres unmarked) [Example 248, N-(4-(4-(4,4,4-trifluorobutanamido)cyclohex-1-en-1-yl)-1H-pyrrolo[2,3-b]pyridin-6-yl)cyclopropanecarboxamide], greater than 200 nM; for `O=C(Nc1cc(C2=CCN(C(=O)C3CCS(=O)(=O)CC3)CC2)c2cc[nH]c2n1)C1CC1` [Example 249, N-(4-(1-(1,1-dioxidotetrahydro-2H-thiopyran-4-carbonyl)-1,2,3,6-tetrahydropyridin-4-yl)-1H-pyrrolo[2,3-b]pyridin-6-yl)cyclopropanecarboxamide], 20 to 200 nM.

On to `N#CCC(=O)N1CC=C(c2cc(NC(=O)C3CC3)nc3[nH]ccc23)CC1` [Example 250, N-(4-(1-(2-cyanoacetyl)-1,2,3,6-tetrahydropyridin-4-yl)-1H-pyrrolo[2,3-b]pyridin-6-yl)cyclopropanecarboxamide], for which the IC50 was less than 20 nM. For `O=C(Nc1cc(C2=CCN(C(=O)CN3CCS(=O)(=O)CC3)CC2)c2cc[nH]c2n1)C1CC1` [Example 251, N-(4-(1-(2-(1,1-dioxidothiomorpholino)acetyl)-1,2,3,6-tetrahydropyridin-4-yl)-1H-pyrrolo[2,3-b]pyridin-6-yl)cyclopropanecarboxamide], the IC50 was 20 to 200 nM. Turning to `N#CCCC(=O)N1CC=C(c2cc(NC(=O)C3CC3)nc3[nH]ccc23)CC1` [Example 252, N-(4-(1-(3-cyanopropanoyl)-1,2,3,6-tetrahydropyridin-4-yl)-1H-pyrrolo[2,3-b]pyridin-6-yl)cyclopropanecarboxamide], the IC50 is less than 20 nM. Under `O=C(Nc1cc(C2=CCN(C(=O)CC(F)(F)F)CC2)c2cc[nH]c2n1)C1CC1` [Example 253, N-(4-(1-(3,3,3-trifluoropropanoyl)-1,2,3,6-tetrahydropyridin-4-yl)-1H-pyrrolo[2,3-b]pyridin-6-yl)cyclopropanecarboxamide] stands 20 to 200 nM; under `O=C(Nc1cc(C2=CCN(C(=O)CCC(F)(F)F)CC2)c2cc[nH]c2n1)C1CC1` [Example 254, N-(4-(1-(4,4,4-trifluorobutanoyl)-1,2,3,6-tetrahydropyridin-4-yl)-1H-pyrrolo[2,3-b]pyridin-6-yl)cyclopropanecarboxamide], 20 to 200 nM.

On to `N#CCCC(=O)N1C2C=C(c3cc(NC(=O)C4CC4)nc4[nH]ccc34)CC1CC2` (centres unmarked) [Example 255, N-(4-(8-(3-cyanopropanoyl)-8-azabicyclo[3.2.1]oct-2-en-3-yl)-1H-pyrrolo[2,3-b]pyridin-6-yl)cyclopropanecarboxamide], for which the IC50 was less than 20 nM.

Regarding `O=C(Nc1cc(C2=CC3CCC(C2)N3C(=O)C2CC2)c2cc[nH]c2n1)C1CC1` (centres unmarked) [Example 256, N-(4-(8-(cyclopropanecarbonyl)-8-azabicyclo[3.2.1]oct-2-en-3-yl)-1H-pyrrolo[2,3-b]pyridin-6-yl)cyclopropanecarboxamide], the IC50 was less than 20 nM. Consider `N#CCC(=O)N1C2C=C(c3cc(NC(=O)C4CC4)nc4[nH]ccc34)CC1CC2` (centres unmarked) [Example 257, N-(4-(8-(2-cyanoacetyl)-8-azabicyclo[3.2.1]oct-2-en-3-yl)-1H-pyrrolo[2,3-b]pyridin-6-yl)cyclopropanecarboxamide], for which the IC50 is less than 20 nM. As to `O=C(Nc1cc(C2=CC3CCC(C2)N3C(=O)CCC(F)(F)F)c2cc[nH]c2n1)C1CC1` (centres unmarked) [Example 258, N-(4-(8-(4,4,4-trifluorobutanoyl)-8-azabicyclo[3.2.1]oct-2-en-3-yl)-1H-pyrrolo[2,3-b]pyridin-6-yl)cyclopropanecarboxamide], the IC50 is less than 20 nM.

With `N#CC1(C(=O)N2CC=C(c3cc(NC(=O)C4CC4)nc4[nH]ccc34)CC2)CC1` [Example 259, N-(4-(1-(1-cyanocyclopropane-1-carbonyl)-1,2,3,6-tetrahydropyridin-4-yl)-1H-pyrrolo[2,3-b]pyridin-6-yl)cyclopropanecarboxamide], the IC50 is greater than 200 nM. As to `O=C(Nc1cc(C2=CCN(C(=O)C3CC(F)(F)C3)CC2)c2cc[nH]c2n1)C1CC1` [Example 260, N-(4-(1-(3,3-difluorocyclobutane-1-carbonyl)-1,2,3,6-tetrahydropyridin-4-yl)-1H-pyrrolo[2,3-b]pyridin-6-yl)cyclopropanecarboxamide], the IC50 lay in the range of 20 to 200 nM. For the molecule `O=C(Nc1cc(C2=CC3CCC(C2)N3C(=O)CC(F)(F)F)c2cc[nH]c2n1)C1CC1` (centres unmarked) [Example 261, N-(4-(8-(3,3,3-trifluoropropanoyl)-8-azabicyclo[3.2.1]oct-2-en-3-yl)-1H-pyrrolo[2,3-b]pyridin-6-yl)cyclopropanecarboxamide], the IC50 was 20 to 200 nM. In the case of `N#CCC(=O)N1[C@@H]2CC[C@H]1C=C(c1cc(NC(=O)C3CC3)nc3[nH]ccc13)C2` [Example 262, N-(4-((1S,5R)-8-(2-cyanoacetyl)-8-azabicyclo[3.2.1]oct-2-en-3-yl)-1H-pyrrolo[2,3-b]pyridin-6-yl)cyclopropanecarboxamide], the IC50 fell in the range of 20 to 200 nM. Under `O=C(Nc1cc(C2=CCN(C(=O)C3CC3(F)F)CC2)c2cc[nH]c2n1)C1CC1` (centres unmarked) [Example 263, N-(4-(1-(2,2-difluorocyclopropane-1-carbonyl)-1,2,3,6-tetrahydropyridin-4-yl)-1H-pyrrolo[2,3-b]pyridin-6-yl)cyclopropanecarboxamide] stands less than 20 nM; under `O=C(Nc1cc(C2=CCN(C(=O)C3CC3)CC2)c2cc[nH]c2n1)C1CC1` [Example 264, N-(4-(1-(cyclopropanecarbonyl)-1,2,3,6-tetrahydropyridin-4-yl)-1H-pyrrolo[2,3-b]pyridin-6-yl)cyclopropanecarboxamide], 20 to 200 nM. For `N#CCCCC(=O)N1CC=C(c2cc(NC(=O)C3CC3)nc3[nH]ccc23)CC1` [Example 265, N-(4-(1-(4-cyanobutanoyl)-1,2,3,6-tetrahydropyridin-4-yl)-1H-pyrrolo[2,3-b]pyridin-6-yl)cyclopropanecarboxamide] the value was less than 20 nM; for `C=CC(=O)N1CC=C(c2cc(NC(=O)C3CC3)nc3[nH]ccc23)CC1` [Example 266, N-(4-(1-acryloyl-1,2,3,6-tetrahydropyridin-4-yl)-1H-pyrrolo[2,3-b]pyridin-6-yl)cyclopropanecarboxamide], 20 to 200 nM. Consider `N#CC1(CC(=O)N2CC=C(c3cc(NC(=O)C4CC4)nc4[nH]ccc34)CC2)CC1` [Example 268, N-(4-(1-(2-(1-cyanocyclopropyl)acetyl)-1,2,3,6-tetrahydropyridin-4-yl)-1H-pyrrolo[2,3-b]pyridin-6-yl)cyclopropanecarboxamide], for which the IC50 was 20 to 200 nM. In the case of `CC(C#N)C(=O)N1CC=C(c2cc(NC(=O)C3CC3)nc3[nH]ccc23)CC1` (centres unmarked) [Example 269, N-(4-(1-(2-cyanopropanoyl)-1,2,3,6-tetrahydropyridin-4-yl)-1H-pyrrolo[2,3-b]pyridin-6-yl)cyclopropanecarboxamide], the IC50 is less than 20 nM.
